Laboratory results: publication PMC8111447 (Frontiers in Pharmacology, 2021)
pIC50: −log10 of the molar value.

Columns and labels:
Assay in all cases: Kinase panel (Eurofins)
Type in all cases: biochemical
Conditions in all cases: n = 2; for inhibition at 1 µM: at 1 μmol/L; for pIC50: read-out: IC50 kinase inhibition
[1] = target: T1, Fer(h) (Homo sapiens, UniProt P16591)
T1 construct: purchased Eurofins
From the text: (§1) These receptors have a methionine gatekeeper in their kinase domains, and are related to hyperglycemia in other clinical trials of EGFR TKI, such as Co-1686.

[2] = target: T2, ErbB4(h) (Homo sapiens, UniProt Q15303)
T2 construct: purchased Eurofins
T2 sequence (Q15303 26-1308): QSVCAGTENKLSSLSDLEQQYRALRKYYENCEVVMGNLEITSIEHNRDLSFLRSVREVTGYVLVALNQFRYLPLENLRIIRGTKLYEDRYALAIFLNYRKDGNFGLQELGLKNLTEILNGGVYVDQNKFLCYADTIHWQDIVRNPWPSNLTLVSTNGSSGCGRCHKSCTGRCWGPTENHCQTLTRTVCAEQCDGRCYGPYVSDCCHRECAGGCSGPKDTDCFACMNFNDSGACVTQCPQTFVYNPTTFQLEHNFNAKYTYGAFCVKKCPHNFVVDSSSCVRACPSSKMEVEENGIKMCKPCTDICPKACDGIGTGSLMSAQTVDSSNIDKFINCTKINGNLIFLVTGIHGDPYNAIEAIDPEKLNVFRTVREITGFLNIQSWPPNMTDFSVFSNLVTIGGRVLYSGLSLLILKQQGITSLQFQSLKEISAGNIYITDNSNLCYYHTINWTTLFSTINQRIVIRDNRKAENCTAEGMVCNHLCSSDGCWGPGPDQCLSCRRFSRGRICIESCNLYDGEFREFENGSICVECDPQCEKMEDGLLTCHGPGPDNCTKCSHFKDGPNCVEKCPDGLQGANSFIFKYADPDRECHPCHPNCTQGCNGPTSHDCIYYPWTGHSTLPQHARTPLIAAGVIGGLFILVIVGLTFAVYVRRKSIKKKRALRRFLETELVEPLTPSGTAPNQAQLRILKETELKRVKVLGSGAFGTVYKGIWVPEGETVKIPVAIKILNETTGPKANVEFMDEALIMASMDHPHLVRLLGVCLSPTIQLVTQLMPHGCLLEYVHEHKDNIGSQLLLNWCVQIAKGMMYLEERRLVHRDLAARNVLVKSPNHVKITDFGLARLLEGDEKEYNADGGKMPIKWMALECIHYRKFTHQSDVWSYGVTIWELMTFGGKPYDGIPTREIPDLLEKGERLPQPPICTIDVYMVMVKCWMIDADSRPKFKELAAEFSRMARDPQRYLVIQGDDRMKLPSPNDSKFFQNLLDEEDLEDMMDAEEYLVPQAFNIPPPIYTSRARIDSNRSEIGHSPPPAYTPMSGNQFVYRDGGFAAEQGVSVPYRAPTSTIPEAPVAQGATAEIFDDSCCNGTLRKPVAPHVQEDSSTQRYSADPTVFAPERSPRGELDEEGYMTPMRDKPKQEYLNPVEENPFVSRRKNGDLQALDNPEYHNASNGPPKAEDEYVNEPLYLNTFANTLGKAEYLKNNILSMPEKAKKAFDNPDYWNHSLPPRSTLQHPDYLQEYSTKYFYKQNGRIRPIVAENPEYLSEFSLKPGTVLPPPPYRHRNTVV
From the text: as §1

[3] = target: T3, Tec(h) activated (Homo sapiens, UniProt P42680)
T3 construct: purchased Eurofins
T3 sequence (P42680 1-631): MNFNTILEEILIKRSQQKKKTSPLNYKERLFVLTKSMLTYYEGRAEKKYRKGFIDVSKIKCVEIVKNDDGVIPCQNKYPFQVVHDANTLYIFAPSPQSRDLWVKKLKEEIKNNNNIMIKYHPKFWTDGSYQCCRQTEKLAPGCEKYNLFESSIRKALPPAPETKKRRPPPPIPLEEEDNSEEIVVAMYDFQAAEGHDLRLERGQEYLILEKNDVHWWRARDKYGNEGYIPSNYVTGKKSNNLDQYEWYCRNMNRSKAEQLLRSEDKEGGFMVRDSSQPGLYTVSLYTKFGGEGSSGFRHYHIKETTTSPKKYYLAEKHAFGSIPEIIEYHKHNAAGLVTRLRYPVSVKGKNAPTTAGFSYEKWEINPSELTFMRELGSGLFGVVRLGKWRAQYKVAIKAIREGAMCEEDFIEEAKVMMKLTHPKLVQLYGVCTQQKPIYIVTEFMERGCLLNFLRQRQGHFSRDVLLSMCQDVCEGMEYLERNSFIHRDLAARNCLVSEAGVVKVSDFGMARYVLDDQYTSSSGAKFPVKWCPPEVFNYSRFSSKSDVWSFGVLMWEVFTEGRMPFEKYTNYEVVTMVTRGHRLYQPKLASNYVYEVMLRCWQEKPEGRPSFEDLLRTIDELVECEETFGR
From the text: as §1

[4] = target: T4, Itk(h) (Homo sapiens, UniProt Q08881)
T4 construct: purchased Eurofins
T4 sequence (Q08881 1-620): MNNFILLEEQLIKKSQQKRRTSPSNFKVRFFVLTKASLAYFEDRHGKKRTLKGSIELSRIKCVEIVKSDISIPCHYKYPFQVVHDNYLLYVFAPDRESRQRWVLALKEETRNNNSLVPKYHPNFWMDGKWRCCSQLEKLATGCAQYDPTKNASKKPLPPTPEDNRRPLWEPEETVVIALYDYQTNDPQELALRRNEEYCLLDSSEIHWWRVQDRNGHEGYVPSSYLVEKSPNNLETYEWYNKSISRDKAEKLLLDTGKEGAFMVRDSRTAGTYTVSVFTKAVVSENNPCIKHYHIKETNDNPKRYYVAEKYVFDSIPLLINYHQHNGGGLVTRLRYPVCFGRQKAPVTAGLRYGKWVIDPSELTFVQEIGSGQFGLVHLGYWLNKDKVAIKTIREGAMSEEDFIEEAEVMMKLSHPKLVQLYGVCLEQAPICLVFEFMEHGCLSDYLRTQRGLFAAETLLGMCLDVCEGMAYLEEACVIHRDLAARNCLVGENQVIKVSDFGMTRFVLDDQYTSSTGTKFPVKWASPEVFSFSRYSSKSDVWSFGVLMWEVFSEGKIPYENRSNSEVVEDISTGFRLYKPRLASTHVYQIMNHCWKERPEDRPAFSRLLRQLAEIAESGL
From the text: as §1

[5] = target: T5, Blk(h) (Homo sapiens, UniProt P51451)
T5 construct: purchased Eurofins
T5 sequence (P51451 whole entry): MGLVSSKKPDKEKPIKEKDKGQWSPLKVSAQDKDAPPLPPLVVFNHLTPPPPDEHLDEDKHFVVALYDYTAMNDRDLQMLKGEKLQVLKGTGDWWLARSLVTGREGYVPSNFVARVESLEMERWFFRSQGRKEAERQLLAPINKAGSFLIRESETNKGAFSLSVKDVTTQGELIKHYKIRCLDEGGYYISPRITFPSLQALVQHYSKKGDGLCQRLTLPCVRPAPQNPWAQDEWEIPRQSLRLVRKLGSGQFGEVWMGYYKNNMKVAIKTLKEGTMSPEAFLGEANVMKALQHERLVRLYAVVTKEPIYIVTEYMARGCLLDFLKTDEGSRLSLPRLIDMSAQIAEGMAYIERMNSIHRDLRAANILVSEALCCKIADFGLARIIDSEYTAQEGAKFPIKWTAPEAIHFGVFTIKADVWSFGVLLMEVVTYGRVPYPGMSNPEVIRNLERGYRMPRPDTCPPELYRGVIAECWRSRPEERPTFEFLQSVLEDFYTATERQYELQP
From the text: as §1

[6] = target: T6, FAK(h) (Homo sapiens, UniProt Q05397)
T6 construct: purchased Eurofins
From the text: as §1

[7] = target: T7, BRK(h) (Homo sapiens, UniProt Q13882)
T7 construct: purchased Eurofins
From the text: as §1

[8] = target: T8, LTK(h) (Homo sapiens, UniProt P29376)
T8 construct: purchased Eurofins
T8 sequence (P29376 17-864): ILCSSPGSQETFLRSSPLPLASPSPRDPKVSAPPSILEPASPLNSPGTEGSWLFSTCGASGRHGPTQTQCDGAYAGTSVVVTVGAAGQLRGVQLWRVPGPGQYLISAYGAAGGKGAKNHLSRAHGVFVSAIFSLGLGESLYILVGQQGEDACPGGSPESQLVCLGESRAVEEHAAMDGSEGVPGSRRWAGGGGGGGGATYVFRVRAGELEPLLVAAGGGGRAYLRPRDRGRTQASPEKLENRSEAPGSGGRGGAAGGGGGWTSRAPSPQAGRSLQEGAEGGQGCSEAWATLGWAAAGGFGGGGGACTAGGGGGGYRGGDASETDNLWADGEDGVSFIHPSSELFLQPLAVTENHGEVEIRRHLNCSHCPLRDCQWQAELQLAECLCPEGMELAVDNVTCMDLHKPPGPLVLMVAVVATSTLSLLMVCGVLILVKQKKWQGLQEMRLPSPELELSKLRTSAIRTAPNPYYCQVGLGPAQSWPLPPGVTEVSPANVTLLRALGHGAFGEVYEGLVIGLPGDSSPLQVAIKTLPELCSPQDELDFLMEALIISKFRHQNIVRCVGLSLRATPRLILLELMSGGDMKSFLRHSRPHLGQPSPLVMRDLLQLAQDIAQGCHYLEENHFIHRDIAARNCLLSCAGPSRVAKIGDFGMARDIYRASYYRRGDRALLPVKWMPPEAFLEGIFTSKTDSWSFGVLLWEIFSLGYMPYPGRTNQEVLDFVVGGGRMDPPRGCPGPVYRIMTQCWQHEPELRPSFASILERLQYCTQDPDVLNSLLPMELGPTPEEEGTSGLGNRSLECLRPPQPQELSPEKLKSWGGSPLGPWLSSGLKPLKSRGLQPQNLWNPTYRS
From the text: as §1

[9] = target: T9, LOK(h) (Homo sapiens, UniProt O94804)
T9 construct: purchased Eurofins
From the text: as §1

[10] = target: T10, ACK1(h) (Homo sapiens, UniProt Q07912)
T10 construct: purchased Eurofins
From the text: as §1

[11] = target: T11, Flt4(h) (Homo sapiens, UniProt P35916)
T11 construct: purchased Eurofins
T11 sequence (P35916 25-1363): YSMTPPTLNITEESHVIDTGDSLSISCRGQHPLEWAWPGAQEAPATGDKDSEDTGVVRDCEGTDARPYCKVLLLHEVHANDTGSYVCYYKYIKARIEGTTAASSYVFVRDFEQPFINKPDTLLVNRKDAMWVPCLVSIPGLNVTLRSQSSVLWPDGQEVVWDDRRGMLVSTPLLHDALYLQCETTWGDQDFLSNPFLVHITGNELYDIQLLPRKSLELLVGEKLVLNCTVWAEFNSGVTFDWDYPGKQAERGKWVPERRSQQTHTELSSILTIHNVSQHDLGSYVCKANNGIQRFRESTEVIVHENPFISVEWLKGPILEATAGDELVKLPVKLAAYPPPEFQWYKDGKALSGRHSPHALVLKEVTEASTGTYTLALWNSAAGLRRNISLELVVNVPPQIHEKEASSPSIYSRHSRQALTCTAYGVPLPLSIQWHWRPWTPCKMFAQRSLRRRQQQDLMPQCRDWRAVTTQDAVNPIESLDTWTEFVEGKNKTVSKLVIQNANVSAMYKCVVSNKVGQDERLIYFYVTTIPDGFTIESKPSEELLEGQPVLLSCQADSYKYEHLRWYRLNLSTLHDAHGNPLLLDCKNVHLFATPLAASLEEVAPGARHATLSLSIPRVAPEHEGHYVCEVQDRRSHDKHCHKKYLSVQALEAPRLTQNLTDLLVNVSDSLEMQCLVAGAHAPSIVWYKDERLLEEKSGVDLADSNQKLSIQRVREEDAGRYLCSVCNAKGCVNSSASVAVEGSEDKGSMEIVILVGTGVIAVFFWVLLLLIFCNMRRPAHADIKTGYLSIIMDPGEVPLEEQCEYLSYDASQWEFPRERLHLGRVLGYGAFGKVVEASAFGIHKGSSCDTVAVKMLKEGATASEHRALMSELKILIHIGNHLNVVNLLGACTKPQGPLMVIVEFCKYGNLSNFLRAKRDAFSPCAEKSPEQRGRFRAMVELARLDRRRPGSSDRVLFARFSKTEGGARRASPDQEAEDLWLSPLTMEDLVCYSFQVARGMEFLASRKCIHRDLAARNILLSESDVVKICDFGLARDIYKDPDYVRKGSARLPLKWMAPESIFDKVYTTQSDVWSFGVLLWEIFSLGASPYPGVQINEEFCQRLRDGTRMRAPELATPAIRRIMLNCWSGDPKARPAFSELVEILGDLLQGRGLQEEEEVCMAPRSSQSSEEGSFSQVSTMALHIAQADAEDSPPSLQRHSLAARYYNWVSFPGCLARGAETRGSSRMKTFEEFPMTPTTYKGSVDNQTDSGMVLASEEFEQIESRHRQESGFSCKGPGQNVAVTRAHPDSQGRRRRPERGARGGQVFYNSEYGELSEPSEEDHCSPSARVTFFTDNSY
From the text: as §1

[12] = target: T12, MLCK(h) (Homo sapiens, UniProt Q9H1R3)
T12 construct: purchased Eurofins
From the text: as §1

[13] = target: T13, LRRK2(h) (Homo sapiens, UniProt Q5S007)
T13 construct: purchased Eurofins
From the text: as §1

[14] = target: T14, IGF-1R(h) (Homo sapiens, UniProt P08069)
T14 construct: purchased Eurofins
From the text: as §1

T1 sequence (P16591 whole entry): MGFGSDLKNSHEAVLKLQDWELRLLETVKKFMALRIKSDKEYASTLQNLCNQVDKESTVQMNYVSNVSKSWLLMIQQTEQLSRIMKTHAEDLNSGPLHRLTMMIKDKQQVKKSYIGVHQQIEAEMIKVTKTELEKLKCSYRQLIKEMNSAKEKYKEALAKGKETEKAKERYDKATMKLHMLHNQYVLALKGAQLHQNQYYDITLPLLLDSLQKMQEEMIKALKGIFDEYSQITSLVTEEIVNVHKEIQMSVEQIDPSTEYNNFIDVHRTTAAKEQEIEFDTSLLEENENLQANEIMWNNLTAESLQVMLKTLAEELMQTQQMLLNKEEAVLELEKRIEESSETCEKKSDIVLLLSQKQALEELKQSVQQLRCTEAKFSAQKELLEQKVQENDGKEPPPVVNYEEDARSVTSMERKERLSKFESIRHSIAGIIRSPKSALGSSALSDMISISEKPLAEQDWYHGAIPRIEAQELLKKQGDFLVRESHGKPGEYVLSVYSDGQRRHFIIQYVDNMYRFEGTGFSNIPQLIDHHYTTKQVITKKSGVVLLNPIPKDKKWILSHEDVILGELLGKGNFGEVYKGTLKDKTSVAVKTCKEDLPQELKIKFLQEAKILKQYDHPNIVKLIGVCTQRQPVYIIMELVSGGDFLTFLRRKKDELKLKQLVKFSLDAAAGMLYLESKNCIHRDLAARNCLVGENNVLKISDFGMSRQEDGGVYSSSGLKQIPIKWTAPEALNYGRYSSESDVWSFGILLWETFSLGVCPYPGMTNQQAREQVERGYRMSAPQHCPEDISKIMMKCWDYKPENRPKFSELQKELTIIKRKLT

SMILES | inhibition at 1 µM [1] [%] | pIC50 [1] | inhibition at 1 µM [2] [%] | pIC50 [2] | inhibition at 1 µM [3] [%] | pIC50 [3] | inhibition at 1 µM [4] [%] | pIC50 [4] | inhibition at 1 µM [5] [%] | pIC50 [5] | inhibition at 1 µM [6] [%] | pIC50 [6] | inhibition at 1 µM [7] [%] | pIC50 [7] | inhibition at 1 µM [8] [%] | pIC50 [8] | inhibition at 1 µM [9] [%] | pIC50 [9] | inhibition at 1 µM [10] [%] | pIC50 [10] | further results
C=CC(=O)Nc1cc(Nc2nccc(-c3c4n(c5ccccc35)CCCC4)n2)c(OC)cc1N(C)CCNC [Imp3] | 80 | 6.34 | 92 | 7.08 | 77 | 6.57 | 68 | 6.08 | 85 | 6.64 | 87 | 6.57 | 91 | 7.10 | 93 | 7.21 | 72 | 6.23 | 90 | 6.91 | inhibition at 1 µM [11]: 96%; pIC50 [11]: 6.98; inhibition at 1 µM [12]: 68%; pIC50 [12]: 6.22; inhibition at 1 µM [13]: 93%; pIC50 [13]: 6.92; inhibition at 1 µM [14]: 70%; pIC50 [14]: 6.09
C=CC(=O)Nc1cc(Nc2nccc(-c3c4n(c5ccccc35)CCCC4)n2)c(OC)cc1N(C)CCN(C)C [SH-1028] | 45 | 6.27 | 90 | 7.34 | 80 | 6.82 | 66 | 6.49 | 83 | 6.84 | 68 | 6.63 | 85 | 7.21 | 83 | 7.09 | 24 | 5.71 | 81 | 7.07 | inhibition at 1 µM [11]: 92%; pIC50 [11]: 7.21; inhibition at 1 µM [12]: 55%; pIC50 [12]: 6.40; inhibition at 1 µM [13]: 89%; pIC50 [13]: 7.09; inhibition at 1 µM [14]: 38%; pIC50 [14]: 6.24
